Our source for the TGI and GI50 values is PubChem BioAssay (NCI).

Structures are written as SMILES.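 Following 48 hours of exposure in 96-well plates, responses at five concentrations were used to interpolate endpoints linearly. At the GI50, growth is halved. The concentration for full growth arrest is given as TGI.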 A value given as a limit tells only on which side of the number the result lay.

Test systems include HL-60(TB) leukemia; CAKI-1 renal; SF-539 CNS; SN12C renal; NCI-H460 lung; U251 CNS; CCRF-CEM leukemia; HOP-62 NSCLC; SK-MEL-28 melanoma.
What all share (assay): growth of human tumour cells (NCI), 48 h

Regarding `COc1ccc2c3c([nH]c2c1[N+](=O)[O-])C(C)N(Cc1ccccc1)CC3` (configuration not stated), the TGI in the assay with HL-60(TB) leukemia was 6.1 µM; in the assay on CAKI-1 renal it was above 100 µM; in the assay on SF-539 CNS, 5.24 µM; in the assay on SN12C renal, above 100 µM; in the assay with NCI-H460 lung it was 14.1 µM; in the assay with U251 CNS it was 8.73 µM. The values for the TGI in the assay on CCRF-CEM leukemia, in the assay with HOP-62 NSCLC and in the assay on SK-MEL-28 melanoma were above 100 µM, 7.12 µM and 59.5 µM, respectively.
Take `Nc1nc([Se])c2ncn(C3OC(CO)C(O)C3O)c2n1` (configuration not stated): the GI50 in the assay on HL-60(TB) leukemia was 4.49 µM; with CAKI-1 renal, 22.5 µM; in the assay on SF-539 CNS it was 19.3 µM; in the assay on SN12C renal, 52.9 µM; in the assay with NCI-H460 lung, 4.54 µM; with U251 CNS, 73.3 µM. Further, the GI50 is 2.28 µM with CCRF-CEM leukemia, 3.73 µM in the assay with HOP-62 NSCLC and above 100 µM in the assay on SK-MEL-28 melanoma. For the same molecule, the TGI in the assay with HL-60(TB) leukemia is above 100 µM; in the assay with CAKI-1 renal, above 100 µM; with SF-539 CNS it was above 100 µM; with SN12C renal, above 100 µM; in the assay with NCI-H460 lung, 57.1 µM; with U251 CNS, above 100 µM. The TGI in the assay on CCRF-CEM leukemia, in the assay on HOP-62 NSCLC and with SK-MEL-28 melanoma was above 100 µM throughout.
For `COc1ccc2c(c1)nc(C(=O)c1ccco1)c(C(F)(F)F)[n+]2[O-]`, the GI50 in the assay with HL-60(TB) leukemia, in the assay with CAKI-1 renal, in the assay with SF-539 CNS, in the assay with SN12C renal, with NCI-H460 lung and with U251 CNS was above 100 µM throughout. Moreover, the GI50 with CCRF-CEM leukemia, with HOP-62 NSCLC and with SK-MEL-28 melanoma was above 100 µM in each case. In addition, the TGI in the assay on HL-60(TB) leukemia, in the assay on CAKI-1 renal, in the assay with SF-539 CNS, in the assay on SN12C renal, with NCI-H460 lung and with U251 CNS was above 100 µM throughout. For the same molecule, the TGI with CCRF-CEM leukemia, in the assay with HOP-62 NSCLC and in the assay on SK-MEL-28 melanoma was above 100 µM throughout.
For the molecule `C[N+](C)(C)CC(=O)N/N=C(/C(=O)Nc1ccc(Br)cc1)C1C(=O)NC(=O)NC1=O`, the TGI with HL-60(TB) leukemia, in the assay with CAKI-1 renal, in the assay on SF-539 CNS, in the assay on SN12C renal, in the assay with NCI-H460 lung and in the assay with U251 CNS was above 100 µM in each case. Besides, the TGI in the assay with CCRF-CEM leukemia, with HOP-62 NSCLC and with SK-MEL-28 melanoma was above 100 µM each time.
As to `COc1cc(/C=N/Nc2ncnc3c2cnn3-c2ccccc2)ccc1O`, the GI50 in the assay on HL-60(TB) leukemia is 11.7 µM; in the assay with CAKI-1 renal, 2.52 µM; in the assay on SF-539 CNS, 8.84 µM; in the assay on SN12C renal, above 25 µM; in the assay on NCI-H460 lung it was 12.9 µM; in the assay on U251 CNS it was 11.6 µM. Also, the GI50 in the assay on CCRF-CEM leukemia is 4.54 µM; in the assay on HOP-62 NSCLC, 16.9 µM; with SK-MEL-28 melanoma, 18.5 µM. Moreover, the TGI in the assay with HL-60(TB) leukemia, in the assay on CAKI-1 renal, in the assay on SF-539 CNS, in the assay on SN12C renal, in the assay with NCI-H460 lung and in the assay on U251 CNS was above 25 µM each time. Also, the TGI in the assay with CCRF-CEM leukemia, in the assay with HOP-62 NSCLC and in the assay with SK-MEL-28 melanoma was above 25 µM in each case.
As to `COc1ccc2c(c1)[nH]c(=O)c1c3cccc(F)c3cn21`, the GI50 in the assay with HL-60(TB) leukemia is 0.0183 µM; in the assay with CAKI-1 renal it was 0.0137 µM; in the assay on SF-539 CNS, 0.0522 µM; in the assay on SN12C renal, 0.0828 µM; with NCI-H460 lung, 0.0442 µM; in the assay with U251 CNS, 0.0472 µM. Also, the GI50 is 0.0282 µM with CCRF-CEM leukemia, 0.641 µM in the assay with HOP-62 NSCLC and 0.351 µM in the assay with SK-MEL-28 melanoma. In addition, the TGI in the assay on HL-60(TB) leukemia was determined as 0.0515 µM; with CAKI-1 renal, 0.04 µM; in the assay on SF-539 CNS it was 0.455 µM; in the assay on SN12C renal, 24.4 µM; in the assay on NCI-H460 lung, 11.7 µM; in the assay on U251 CNS it was 14.8 µM. Also, the TGI in the assay on CCRF-CEM leukemia was 0.304 µM; with HOP-62 NSCLC, 51.3 µM; with SK-MEL-28 melanoma, above 69.8 µM.
In the case of `CCC(C)Nc1ccc(N)cc1` (configuration not stated), the GI50 in the assay on HL-60(TB) leukemia is 1.48 µM; in the assay on CAKI-1 renal, 16.7 µM; in the assay on SF-539 CNS, 5.16 µM; in the assay with SN12C renal, 2.95 µM; with NCI-H460 lung it was 3.85 µM; in the assay with U251 CNS it was 3.64 µM. Besides, the GI50 was 3.33 µM in the assay on CCRF-CEM leukemia, 4.14 µM in the assay with HOP-62 NSCLC and 6.37 µM in the assay on SK-MEL-28 melanoma. The TGI in the assay on HL-60(TB) leukemia was 5.05 µM; in the assay on CAKI-1 renal, above 100 µM; in the assay with SF-539 CNS, 17.1 µM; in the assay on SN12C renal, 12.9 µM; in the assay on NCI-H460 lung, 13.9 µM; in the assay on U251 CNS it was 13 µM. Besides, the TGI in the assay with CCRF-CEM leukemia stood at 17.9 µM; with HOP-62 NSCLC it was 14.9 µM; in the assay with SK-MEL-28 melanoma, 18.9 µM.
Turning to `CCOP(=O)(OCC)C1CCCOC1=O` (configuration not stated), the TGI in the assay on HL-60(TB) leukemia, in the assay on CAKI-1 renal, with SF-539 CNS, with SN12C renal, in the assay on NCI-H460 lung and in the assay on U251 CNS was above 100 µM in each case. Besides, the TGI in the assay on CCRF-CEM leukemia, in the assay with HOP-62 NSCLC and in the assay on SK-MEL-28 melanoma was above 100 µM in each case.
